Results published in patent EP1624029A1, “New Pyridinium imine based dyes and their use in optical layers for optical data recording” (CLARIANT INTERNATIONAL LTD., priority 2004, dated 2006).

Test: DSC thermal decomposition
Assay type: physicochemical
Conditions: decomposition temperature by DSC
Text: The optical and thermal properties of the pyridinium imine based dye compounds were studied. The dyes show high absorption at the desired wavelengths. In addition, the shape of the absorption spectra, that still remains critical to the disc reflectivity and formation of clean mark edges, are composed of one major band, comprised in a range of from 350 to 500 nm, preferably of from 350 to 400 nm. […] Sharp threshold of thermal decomposition within the required temperature range characterizes the new pyridinium imine based dyes which are assumed to be desirable for the application in optical layers for optical data recording. As a conclusion, the pyridinium imine based dye compounds are within the specifications which are primarily required by the industry for the use of dyes in optical data recording, in particular in the next-generation optical data recording media in the blue laser range.

**Q.** Which “DSC (decomp.)” value does the source give for `CC[n+]1ccccc1N=CC1C(=O)NC(=O)NC1=O` [Example 1] here?
**A.** 326 °C
